Source: patent publication US20250000865A1, “COMPOUND FOR REDUCING URIC ACID LEVELS” (NEWSOARA BIOPHARMA CO., LTD., priority 2021, published 2025)

System: healthy subjects
Assay: Phase I clinical trial, single-dose groups: uric acid index before and after treatment
Format: in vivo, human
Conditions: for Uric acid (UA) Mean / Uric acid (UA) Median / Uric acid (UA) Minimum value / Uric acid (UA) maximum value / Uric acid (UA) Changes over baseline at last visit (on day 6), Mean / Uric acid (UA) Changes over baseline at last visit (on day 6), Median / Uric acid (UA) Changes over baseline at last visit (on day 6), Minimum value / Uric acid (UA) Changes over baseline at last visit (on day 6), maximum value / Uric acid (UA) Changes over baseline on day 2, Mean / Uric acid (UA) Changes over baseline on day 2, Median / Uric acid (UA) Changes over baseline on day 2, Minimum value / Uric acid (UA) Changes over baseline on day 2, maximum value / Uric acid (UA) Changes over baseline on day 4, Mean / Uric acid (UA) Changes over baseline on day 4, Median / Uric acid (UA) Changes over baseline on day 4, Minimum value / Uric acid (UA) Changes over baseline on day 4, maximum value: N = 9
Protocol: The changes of uric acid levels in subjects in single-dose and multi-dose groups of Compound I are shown in FIG. 1A (single dose of 6 mg and single dose of 10 mg), FIG. 1B (single dose of 20 mg and single dose of 30 mg), and FIG. 2 (multi-dose of 10 mg and multi-dose of 20 mg). The corresponding results are also shown in Tables 1.1, 1.2, 1.3, and 2.1, and tables 2.2, 2.3, and 2.4.

[1] = Last visit (day 6), single dose 6 mg
[2] = Last visit (day 6), single dose 10 mg
[3] = Last visit (day 6), single dose 20 mg
[4] = Last visit (day 6), single dose 30 mg

COc1cccc2c1ncc1c(=O)n(C3CCC(C(=O)O)CC3)c(=O)n(-c3cccc(Cl)c3)c12 (stereo not shown) [Compound I, 4-[1-(3-chlorophenyl)-7-methoxy-2,4-dioxo-pyrimido[5,4-c]quinolin-3-yl]cyclohexanecarboxylic acid]
Uric acid (UA) Mean (Baseline, single dose 6 mg): 315.9 µmol/L
Uric acid (UA) Median (Baseline, single dose 6 mg): 319.0 µmol/L
Uric acid (UA) Minimum value (Baseline, single dose 6 mg): 185 µmol/L
Uric acid (UA) maximum value (Baseline, single dose 6 mg): 429 µmol/L
Uric acid (UA) Mean (Baseline, single dose 10 mg): 335.2 µmol/L
Uric acid (UA) Median (Baseline, single dose 10 mg): 330.0 µmol/L
Uric acid (UA) Minimum value (Baseline, single dose 10 mg): 224 µmol/L
Uric acid (UA) maximum value (Baseline, single dose 10 mg): 446 µmol/L
Uric acid (UA) Mean (Baseline, single dose 20 mg): 326.0 µmol/L
Uric acid (UA) Median (Baseline, single dose 20 mg): 320.0 µmol/L
Uric acid (UA) Minimum value (Baseline, single dose 20 mg): 256 µmol/L
Uric acid (UA) maximum value (Baseline, single dose 20 mg): 436 µmol/L
Uric acid (UA) Mean (Baseline, single dose 30 mg): 300.9 µmol/L
Uric acid (UA) Median (Baseline, single dose 30 mg): 277.0 µmol/L
Uric acid (UA) Minimum value (Baseline, single dose 30 mg): 209 µmol/L
Uric acid (UA) maximum value (Baseline, single dose 30 mg): 401 µmol/L
Uric acid (UA) Mean (Day 2, single dose 6 mg): 272.9 µmol/L
Uric acid (UA) Median (Day 2, single dose 6 mg): 272.0 µmol/L
Uric acid (UA) Minimum value (Day 2, single dose 6 mg): 160 µmol/L
Uric acid (UA) maximum value (Day 2, single dose 6 mg): 347 µmol/L
Uric acid (UA) Mean (Day 2, single dose 10 mg): 266.1 µmol/L
Uric acid (UA) Median (Day 2, single dose 10 mg): 254.0 µmol/L
Uric acid (UA) Minimum value (Day 2, single dose 10 mg): 161 µmol/L
Uric acid (UA) maximum value (Day 2, single dose 10 mg): 447 µmol/L
Uric acid (UA) Mean (Day 2, single dose 20 mg): 194.9 µmol/L
Uric acid (UA) Median (Day 2, single dose 20 mg): 209.0 µmol/L
Uric acid (UA) Minimum value (Day 2, single dose 20 mg): 105 µmol/L
Uric acid (UA) maximum value (Day 2, single dose 20 mg): 251 µmol/L
Uric acid (UA) Mean (Day 2, single dose 30 mg): 135.8 µmol/L
Uric acid (UA) Median (Day 2, single dose 30 mg): 144.0 µmol/L
Uric acid (UA) Minimum value (Day 2, single dose 30 mg): 60 µmol/L
Uric acid (UA) maximum value (Day 2, single dose 30 mg): 178 µmol/L
Uric acid (UA) Mean (Day 4, single dose 6 mg): 285.9 µmol/L
Uric acid (UA) Median (Day 4, single dose 6 mg): 300.0 µmol/L
Uric acid (UA) Minimum value (Day 4, single dose 6 mg): 193 µmol/L
Uric acid (UA) maximum value (Day 4, single dose 6 mg): 378 µmol/L
Uric acid (UA) Mean (Day 4, single dose 10 mg): 302.8 µmol/L
Uric acid (UA) Median (Day 4, single dose 10 mg): 304.0 µmol/L
Uric acid (UA) Minimum value (Day 4, single dose 10 mg): 199 µmol/L
Uric acid (UA) maximum value (Day 4, single dose 10 mg): 462 µmol/L
Uric acid (UA) Mean (Day 4, single dose 20 mg): 277.7 µmol/L
Uric acid (UA) Median (Day 4, single dose 20 mg): 279.0 µmol/L
Uric acid (UA) Minimum value (Day 4, single dose 20 mg): 179 µmol/L
Uric acid (UA) maximum value (Day 4, single dose 20 mg): 340 µmol/L
Uric acid (UA) Mean (Day 4, single dose 30 mg): 217.9 µmol/L
Uric acid (UA) Median (Day 4, single dose 30 mg): 232.0 µmol/L
Uric acid (UA) Minimum value (Day 4, single dose 30 mg): 140 µmol/L
Uric acid (UA) maximum value (Day 4, single dose 30 mg): 266 µmol/L
Uric acid (UA) Mean [1]: 327.2 µmol/L
Uric acid (UA) Median [1]: 341.0 µmol/L
Uric acid (UA) Minimum value [1]: 227 µmol/L
Uric acid (UA) maximum value [1]: 431 µmol/L
Uric acid (UA) Mean [2]: 357.3 µmol/L
Uric acid (UA) Median [2]: 367.0 µmol/L
Uric acid (UA) Minimum value [2]: 243 µmol/L
Uric acid (UA) maximum value [2]: 508 µmol/L
Uric acid (UA) Mean [3]: 341.1 µmol/L
Uric acid (UA) Median [3]: 358.0 µmol/L
Uric acid (UA) Minimum value [3]: 237 µmol/L
Uric acid (UA) maximum value [3]: 414 µmol/L
Uric acid (UA) Mean [4]: 287.4 µmol/L
Uric acid (UA) Median [4]: 283.0 µmol/L
Uric acid (UA) Minimum value [4]: 207 µmol/L
Uric acid (UA) maximum value [4]: 364 µmol/L
Uric acid (UA) Changes over baseline at last visit (on day 6), Mean (single dose 6 mg): 11.3 µmol/L
Uric acid (UA) Changes over baseline at last visit (on day 6), Median (single dose 6 mg): 22.0 µmol/L
Uric acid (UA) Changes over baseline at last visit (on day 6), Minimum value (single dose 6 mg): -48 µmol/L
Uric acid (UA) Changes over baseline at last visit (on day 6), maximum value (single dose 6 mg): 52 µmol/L
Uric acid (UA) Changes over baseline on day 2, Mean (single dose 6 mg): -43.0 µmol/L
Uric acid (UA) Changes over baseline on day 2, Median (single dose 6 mg): -32.0 µmol/L
Uric acid (UA) Changes over baseline on day 2, Minimum value (single dose 6 mg): -112 µmol/L
Uric acid (UA) Changes over baseline on day 2, maximum value (single dose 6 mg): 42 µmol/L
Uric acid (UA) Changes over baseline on day 4, Mean (single dose 6 mg): -30.0 µmol/L
Uric acid (UA) Changes over baseline on day 4, Median (single dose 6 mg): -18.0 µmol/L
Uric acid (UA) Changes over baseline on day 4, Minimum value (single dose 6 mg): -86 µmol/L
Uric acid (UA) Changes over baseline on day 4, maximum value (single dose 6 mg): 31 µmol/L
Uric acid (UA) Changes over baseline at last visit (on day 6), Mean (single dose 10 mg): 22.1 µmol/L
Uric acid (UA) Changes over baseline at last visit (on day 6), Median (single dose 10 mg): 19.0 µmol/L
Uric acid (UA) Changes over baseline at last visit (on day 6), Minimum value (single dose 10 mg): -27 µmol/L
Uric acid (UA) Changes over baseline at last visit (on day 6), maximum value (single dose 10 mg): 88 µmol/L
Uric acid (UA) Changes over baseline on day 2, Mean (single dose 10 mg): -69.1 µmol/L
Uric acid (UA) Changes over baseline on day 2, Median (single dose 10 mg): -70.0 µmol/L
Uric acid (UA) Changes over baseline on day 2, Minimum value (single dose 10 mg): -133 µmol/L
Uric acid (UA) Changes over baseline on day 2, maximum value (single dose 10 mg): 1 µmol/L
Uric acid (UA) Changes over baseline on day 4, Mean (single dose 10 mg): -32.4 µmol/L
Uric acid (UA) Changes over baseline on day 4, Median (single dose 10 mg): -29.0 µmol/L
Uric acid (UA) Changes over baseline on day 4, Minimum value (single dose 10 mg): -92 µmol/L
Uric acid (UA) Changes over baseline on day 4, maximum value (single dose 10 mg): 23 µmol/L
Uric acid (UA) Changes over baseline at last visit (on day 6), Mean (single dose 20 mg): 15.1 µmol/L
Uric acid (UA) Changes over baseline at last visit (on day 6), Median (single dose 20 mg): 9.0 µmol/L
Uric acid (UA) Changes over baseline at last visit (on day 6), Minimum value (single dose 20 mg): -34 µmol/L
Uric acid (UA) Changes over baseline at last visit (on day 6), maximum value (single dose 20 mg): 122 µmol/L
Uric acid (UA) Changes over baseline on day 2, Mean (single dose 20 mg): -131.1 µmol/L
Uric acid (UA) Changes over baseline on day 2, Median (single dose 20 mg): -130.0 µmol/L
Uric acid (UA) Changes over baseline on day 2, Minimum value (single dose 20 mg): -211 µmol/L
Uric acid (UA) Changes over baseline on day 2, maximum value (single dose 20 mg): -42 µmol/L
Uric acid (UA) Changes over baseline on day 4, Mean (single dose 20 mg): -48.3 µmol/L
Uric acid (UA) Changes over baseline on day 4, Median (single dose 20 mg): -62.0 µmol/L
Uric acid (UA) Changes over baseline on day 4, Minimum value (single dose 20 mg): -106 µmol/L
Uric acid (UA) Changes over baseline on day 4, maximum value (single dose 20 mg): 50 µmol/L
Uric acid (UA) Changes over baseline at last visit (on day 6), Mean (single dose 30 mg): -13.4 µmol/L
Uric acid (UA) Changes over baseline at last visit (on day 6), Median (single dose 30 mg): -20.0 µmol/L
Uric acid (UA) Changes over baseline at last visit (on day 6), Minimum value (single dose 30 mg): -75 µmol/L
Uric acid (UA) Changes over baseline at last visit (on day 6), maximum value (single dose 30 mg): 58 µmol/L
Uric acid (UA) Changes over baseline on day 2, Mean (single dose 30 mg): -165.1 µmol/L
Uric acid (UA) Changes over baseline on day 2, Median (single dose 30 mg): -152.0 µmol/L
Uric acid (UA) Changes over baseline on day 2, Minimum value (single dose 30 mg): -261 µmol/L
Uric acid (UA) Changes over baseline on day 2, maximum value (single dose 30 mg): -79 µmol/L
Uric acid (UA) Changes over baseline on day 4, Mean (single dose 30 mg): -83.0 µmol/L
Uric acid (UA) Changes over baseline on day 4, Median (single dose 30 mg): -69.0 µmol/L
Uric acid (UA) Changes over baseline on day 4, Minimum value (single dose 30 mg): -162 µmol/L
Uric acid (UA) Changes over baseline on day 4, maximum value (single dose 30 mg): -3 µmol/L
uric acid level in the subjects, overall clinical trial result (single-dose and multi-dose groups, p<0.05): reduces the uric acid level in the subjects significantly
uric acid level on the following days (days 4 and 6) (single-dose groups): gradually recovered
uric acid level the next day after administration (single-dose groups, certain dose dependence): decreases obviously
